Laboratory results: paper PMC9519446, “Discovery of an Orally Active Benzoxaborole Prodrug Effective in the Treatment of Chagas Disease in Non-human Primates” (Nature microbiology, 2022)
Several values for one entry are separate records, joined by “and”; a condition that tells them apart may be missing. Equal values may be shown once.

Key:
[1] = system: T. cruzi (naturally acquired infection); assay: NHP treatment study: blood qPCR for T. cruzi DNA; assay type: in vivo, rhesus macaques (Macaca mulatta)
From the text: A total of 22 rhesus macaques that had been confirmed to be serologically- and PCR-positive for T. cruzi were utilized in these studies. Using 19 animals in the treatment group provided 85% power of detecting 100% efficacy. […] The remaining three animals on the study were maintained as untreated control animals and received food treats but were not dosed with AN15368.
Blood samples from each macaque were collected at various time points and processed for quantification of T. cruzi DNA by real-time qPCR. Between 8-10ml of whole blood collected in EDTA anticoagulant tubes was subjected to DNA extraction using the Omega E.Z.N.A. Blood DNA Maxi Kit (Omega Bio-Tek), following the manufacturer’s instructions for up to 10 ml whole blood and using a total of 650 μl of elution buffer. Each round of extractions included a negative (no-template) control comprised of 10 ml PBS. The concentration of DNA in the eluted solution was quantified after each extraction using an Epoch microplate spectrophotometer (BioTek).
DNA from each sample was then subjected to a series of two qPCR assays for detection of T. cruzi satellite DNA. The first qPCR used the cruzi 1, 2 primer set and cruzi 3 TaqMan probe as previously described, [54], using BioRad iTaq Universal Probes Supermix (Bio-Rad). […] We selected FAM and VIC channels for each read.

[2] = NHP health screening: hematology (CBC); assay type: in vivo, rhesus macaques (Macaca mulatta)
Experimental: Under light-anesthesia/sedation, peripheral blood samples were collected from each animal prior to treatment and at 7 time points following. Blood analysis (CBC and serum chemistry assays) and physical exams to evaluate the health of the study animals were performed on each animal prior to the beginning of the study and also at three time points during the treatment protocol (see Supplementary data).

[3] = Mean of treated female rhesus macaques, blood sample of 2018-03-26/27
[4] = Treated rhesus macaques, individual animal, blood sample of 2018-03-26/27
[5] = drug-treatment phase, returned to pre-study values by the final blood draw
[6] = treated female macaques, mid-dosing bleed, Mean
[7] = treated female macaques, post-dosing bleed, Mean

Cc1c(C(=O)N[C@H](C(=O)OCC2CCOCC2)C(C)C)ccc2c1B(O)OC2 [AN15368]
parasite DNA in blood (in words) ([1]; 30 mg/kg/day oral 60 days, all time points after end of treatment): negative
efficacy / cure ([1]; naturally infected NHPs, 30 mg/kg/day 60 days): 100%
Baso, Mean [2, 3]: 0.01 10^3/µL
Eos, Mean [2, 3]: 0.09056 10^3/µL
Hct, Mean [2, 3]: 42.7278%
Hgb, Mean [2, 3]: 13.2278 G/Dl
Lymp, Mean [2, 3]: 2.112 10^3/µL
Mch, Mean [2, 3]: 22.4444 Pgs
Mchc, Mean [2, 3]: 30.9611 G/Dl
Mcv, Mean [2, 3]: 72.4667 fL
Mono, Mean [2, 3]: 0.2806 10^3/µL
Mpv, Mean [2, 3]: 7.333 fL
Neut, Mean [2, 3]: 3.369 10^3/µL
Plt, Mean [2, 3]: 334.722 10^3/µL
Rbc, Mean [2, 3]: 5.902 10^6/µL
Rdw, Mean [2, 3]: 12.2111%
Wbc, Mean [2, 3]: 5.862 10^3/µL
Baso [2, 4]: 0.01 10^3/µL and 0 10^3/µL
Eos [2, 4]: 0.24 10^3/µL and 0.09 10^3/µL and 0.02 10^3/µL and 0.17 10^3/µL and 0.16 10^3/µL
Hct [2, 4]: 46.5% and 43.6% and 38.8% and 40.8% and 41.6%
Hgb [2, 4]: 14.6 G/Dl and 13 G/Dl and 11.7 G/Dl and 13.1 G/Dl
Lymp [2, 4]: 2.42 10^3/µL and 2.63 10^3/µL and 1.31 10^3/µL and 3.46 10^3/µL and 2.68 10^3/µL
Mch [2, 4]: 21.8 Pgs and 21.4 Pgs and 21.5 Pgs and 22.2 Pgs and 22.8 Pgs
Mchc [2, 4]: 31.4 G/Dl and 29.8 G/Dl and 30.2 G/Dl and 32.1 G/Dl and 31.5 G/Dl
Mcv [2, 4]: 69.6 fL and 71.6 fL and 71.5 fL and 69.4 fL and 72.5 fL
Mono [2, 4]: 0.38 10^3/µL and 0.28 10^3/µL and 0.1 10^3/µL and 0.31 10^3/µL
Mpv [2, 4]: 7.6 fL and 6.9 fL and 7.2 fL and 6.4 fL
Neut [2, 4]: 3.03 10^3/µL and 1.68 10^3/µL and 2.26 10^3/µL and 1.88 10^3/µL and 0.86 10^3/µL
Plt [2, 4]: 347 10^3/µL and 388 10^3/µL and 304 10^3/µL and 339 10^3/µL and 367 10^3/µL
Rbc [2, 4]: 6.68 10^6/µL and 6.09 10^6/µL and 5.43 10^6/µL and 5.88 10^6/µL and 5.74 10^6/µL
Rdw [2, 4]: 11.4% and 12.7% and 10.8% and 12.3% and 12.2%
Wbc [2, 4]: 6.07 10^3/µL and 4.69 10^3/µL and 3.69 10^3/µL and 5.83 10^3/µL and 3.99 10^3/µL
lymphocytes in the blood [2, 5]: mildly elevated
monocytes in the blood [2, 5]: mildly elevated
Baso [2, 6]: 0.01333 10^3/µL
Eos [2, 6]: 0.09889 10^3/µL
Hct [2, 6]: 41.4111%
Hgb [2, 6]: 13.2333 G/Dl
Lymp [2, 6]: 3.343 10^3/µL
Mch [2, 6]: 23.5333 Pgs
Mchc [2, 6]: 31.9611 G/Dl
Mcv [2, 6]: 73.75 fL
Mono [2, 6]: 0.2572 10^3/µL
Mpv [2, 6]: 7.506 fL
Neut [2, 6]: 2.007 10^3/µL
Plt [2, 6]: 319.5 10^3/µL
Rbc [2, 6]: 5.621 10^6/µL
Rdw [2, 6]: 12.4556%
Wbc [2, 6]: 5.718 10^3/µL
Baso [2, 7]: 0.01167 10^3/µL
Eos [2, 7]: 0.09 10^3/µL
Hct [2, 7]: 40.5389%
Hgb [2, 7]: 13.0722 G/Dl
Lymp [2, 7]: 2.497 10^3/µL
